From patent publication US9261498B2, “Biomarker for sensitivity to mTOR inhibitor therapy in kidney cancer” (The Regents of the University of California, priority 2005, dated 2016)
“Also recorded” adds a separate entry of the source.

Key:
SN12C-CSCG cells = assay: In vitro growth (cell counts), parental empty-vector cells; assay type: cell-based, human; settings: 1 and 10 nM CCI-779, day 5, 10% serum; b106 at 10 nM
Procedure: (§1) FIGS. 1A-1E. Effects of VHL knockdown on sensitivity to CCI-779. (a) Immunoblotting of lysates derived from shRNA and control (empty vector, V) in SN12C, using antibodies against VHL (both isoforms detected), HIF-1α, HIF-2α, GLUT-1, CA-IX and β-Actin (as a loading control). (b) SN12C-CSCG and SN12C-VHLshRNA cells (1×10^5) were cultured in 10% serum rich media, in the presence of vehicle, 1 or 10 nM of CCI-779 for 5 days. Cell growth was measured by cell counts (n=3). […] (c) SN12C-CSCG (C1) and SN12C-CSCG shVHL RNA (C2) cells were injected into SCID mice at a dose of 1×10^6 cells per mouse (n=30). […] Phosphorylated-S6 protein in SN12C-CSCG and SN12C-VHL shRNA xenograft tumors treated with vehicle or 0.1 mg/kg of CCI-779 was measured by immunoblot C3 and C4). […]
(§2) For in vitro experiments, cells (5×10^4) were plated and treated with 1 and 10 nM CCI-779 (kind gift of J. Gibbons, Wyeth) or vehicle (ethanol). On day 5-post treatment, cells were trypsinized, resuspended in DMEM with 10% FBS and counted using the VI CELL counter (Beckman Coulter), according to the manufacturer's instructions. […] In vivo tumorigenicity was measured by injection of 5×10^5 SN12C-CSCG, ACHN-CSCG, SN12C-CSCG-VHLshRNAi, ACHN-CSCG-VHLshRNAi, SN12C-CSCG-VHLshRNAi-pBABE, SN12C-CSCG-VHLshRNAi-pBABE-HA-HIF-2α (P405A; P531A) cells in 100 μl of Matrigel (Collaborative Biomedical) subcutaneously into the flanks of SCID mice. […]

ACHN-CSCG cells = assay: as above; assay type: cell-based, human; settings: 10 nM CCI-779, day 5
Procedure: as §1, §2

[1] = test system: SN12C-shVHL RNAi and ACHN-shVHL RNAi xenograft tumors; assay: Subcutaneous xenograft tumor growth, VHL knockdown tumors; assay type: in vivo, SCID mice; settings: 0.1 mg/kg CCI-779 daily
Procedure: as §1, §2

For `CO[C@H]1C[C@@H]2CC[C@@H](C)[C@@](O)(O2)C(=O)C(=O)N2CCCC[C@H]2C(=O)O[C@H]([C@H](C)C[C@@H]2CC[C@@H](OC(=O)C(C)(CO)CO)[C@H](OC)C2)CC(=O)[C@H](C)/C=C(\C)[C@@H](O)[C@@H](OC)C(=O)[C@H](C)C[C@H](C)/C=C/C=C/C=C/1C` [CCI-779], the cell growth (SN12C-CSCG cells) was “not affected; also recorded: not sensitive”, the cell growth (ACHN-CSCG cells) was “not affected” and the “growth of the VHL shRNAi tumors” value [1] was “completely blocked the growth”.
